According to article PMC10728220, “Novel 3-(pyrazol-4-yl)-2-(1H-indole-3-carbonyl)acrylonitrile derivatives induce intrinsic and extrinsic apoptotic death mediated P53 in HCT116 colon carcinoma” (Scientific Reports, 2023):
In brackets after ≈: the same amount, converted by molar mass.

Legend:
MCF-7 = system: MCF-7; parameters: method as in Jumaah et al., 65; conditions: ref Jumaah et al., 65; cited from earlier work
[1] = system: normal human skin melanocyte cell line (HFB4); assay: Cytotoxic MTT assay, normal HFB4 cells; type: cell-based; conditions: 48 h treatment
Description: (§1) MTT protocol was performed to study the viability of cells after treatment with the tested compounds. The studied cell lines (A549 and HCT116) were cultured and grown in RPMI‐1640 media, while HFB4 cells were reserved in DMEM‐F12 media. Both media were supplemented with 10% FBS, 1% L‐glutamine, and 1% antibiotic–antimycotic mixture. The cell lines were grown at conditions of 37 °C and 5% CO2. 10 × 10^3 of A549, and HCT116 cells and the same count of normal melanocytes (HFB4) were cultured in a 96‐well plate. The selected cultured cells were kept at 37°C and 5% CO2 overnight. Then, the medium was discarded after 24 h of incubation, and 100 µL from different concentrations of the studied compounds dissolved in fresh medium without serum, with final concentrations of 100, 50, 25, 12.5, 6.25, 3.125, 1.56, and 0.78 µg/mL was added. The treated cells were then incubated for 48 h. After that, 50 µL of MTT was added into each well for 4 h for the formazan crystals to be formed. Finally, 200 µl of 10% sodium dodecyl sulphate (SDS) was added to each well, and plates were kept at room temperature overnight to allow the reaction to be stopped. The optical density at 575 nm was read using a microplate multi-well reader, and the percentage of cell viability was calculated. The dose–response curve was drawn to calculate the IC50 values for each compound using the prism GraphPad 5 program, [84]. 5 Fluorouracil, a commercial anticancer drug was used as a reference drug (positive control). Negative untreated cell control was used in this assay.

lung carcinoma (A549) = assay: Cytotoxic MTT assay, A549; type: cell-based; conditions: Homo sapiens, 48 h treatment
Description: as §1

[2] = system: colorectal carcinoma (HCT116); assay: Cytotoxic MTT assay, HCT116; type: cell-based, human; conditions: Homo sapiens, HCT-116; MTT, 48 h treatment
Description: as §1

HepG2 [3] = system: HepG2; parameters: method as in PMID 34939695; conditions: previous study of the authors; cited from earlier work
A549 [4] = system: A549; parameters: method as in PMID 34939695; conditions: previous study of the authors; cited from earlier work
A549 [5] = system: A549; parameters: method as in doi:10.1007/s00706-021-02886-5; conditions: cited from earlier work
HepG2 [6] = system: HepG2; parameters: method as in doi:10.1007/s00706-021-02886-5; conditions: cited from earlier work

**Q.** Which IC50 (MCF-7) does the source give for `COc1ccc2c(/C=C/C(=O)c3cc(OC)c(OC)c(OC)c3)cn(C)c2c1` [(E)-3-(6-methoxy-1-methyl-1H-indol-3-yl)-1-(3,4,5-tri-methoxyphenyl)-prop-2-en-1-one] here?
**A.** The IC50 was 19.2 µM.

**Q.** Which melting point does the source give for `N#C/C(=C\c1cn(-c2ccccc2)nc1-c1ccc(Cl)cc1)C(=O)c1c[nH]c2ccccc12` [Compound 7e, (E)-3-(3-(4-Chlorophenyl)-1-phenyl-1H-pyrazol-4-yl)-2-(1H-indole-3-carbonyl)acrylonitrile] here?
**A.** The melting point was 296 to 298 °C.

**Q.** What about the IC50 [1] of the same compound?
**A.** The IC50 was over 100 µg/mL.

**Q.** And the IC50 (lung carcinoma (A549))?
**A.** The IC50 was over 100 µg/mL.

**Q.** What about the IC50 [2] of the same compound?
**A.** The IC50 was over 100 µg/mL.

**Q.** Which results are given for `N#C/C(=C\c1cn(-c2ccccc2)nc1-c1ccc(O)cc1)C(=O)c1c[nH]c2ccccc12` [Compound 7d, (E)-3-(3-(4-Hydroxyphenyl)-1-phenyl-1H-pyrazol-4-yl)-2-(1H-indole-3-carbonyl)acrylonitrile]?
**A.** melting point: 288 to 290 °C; IC50 [1]: > 100 µg/mL; IC50 (lung carcinoma (A549)): > 100 µg/mL; IC50 [2]: 43 µg/mL (≈ 99.9 µM)

**Q.** With 3-(thiophen-2-yl)pyrazol-4-yl)chalcone as the compound, how does the IC50 (HepG2 [3]) read?
**A.** Its IC50 is 64 µM.

**Q.** What about the IC50 (A549 [4]) of the same compound?
**A.** The IC50 was 66.6 µM.

**Q.** Which melting point does the source give for `COc1ccc(-c2nn(-c3ccccc3)cc2/C=C(\C#N)C(=O)c2c[nH]c3ccccc23)cc1` [Compound 7c, (E)-2-(1H-Indole-3-carbonyl)-3-(3-(4-methoxyphenyl)-1-phenyl-1H-pyrazol-4-yl)acrylonitrile] here?
**A.** The melting point was 252 to 254 °C.

**Q.** What about the IC50 [1] of the same compound?
**A.** The IC50 was over 100 µg/mL.

**Q.** And the IC50 (lung carcinoma (A549))?
**A.** Its IC50 is over 100 µg/mL.

**Q.** What about the IC50 [2] of the same compound?
**A.** Its IC50 is over 100 µg/mL.

**Q.** For `Cc1ccc(-c2nn(-c3ccccc3)cc2/C=C(\C#N)C(=O)c2c[nH]c3ccccc23)cc1` [Compound 7b, (E)-2-(1H-Indole-3-carbonyl)-3-(1-phenyl-3-(p-tolyl)-1H-pyrazol-4-yl)acrylonitrile], which melting point is on record?
**A.** Its melting point is 288 to 290 °C.

**Q.** What about the IC50 [1] of the same compound?
**A.** The IC50 was over 100 µg/mL.

**Q.** And the IC50 (lung carcinoma (A549))?
**A.** Its IC50 is over 100 µg/mL.

**Q.** What about the IC50 [2] of the same compound?
**A.** The IC50 was over 100 µg/mL.

**Q.** With `Cc1ccc(C=CC(=O)c2c(C)nn(-c3ccc([N+](=O)[O-])cc3)c2C)cc1` [1-[3,5-dimethyl-1-(4-nitrophenyl)-1H-pyrazol-4-yl]-3-(p-tolyl) prop-2-en-1-one] as the compound, how does the “IC50 A549” value (A549 [5]) read?
**A.** The value was 44.3 µg/mL (≈ 123 µM).

**Q.** What about the “IC50 HepG2” value (HepG2 [6]) of the same compound?
**A.** Its value is 57.9 µg/mL (≈ 160 µM).

**Q.** For `N#C/C(=C\c1cn(-c2ccccc2)nc1-c1ccccc1)C(=O)c1c[nH]c2ccccc12` [Compound 7a, (E)-3-(1,3-Diphenyl-1H-pyrazol-4-yl)-2-(1H-indole-3-carbonyl)acrylonitrile], which melting point is on record?
**A.** Its melting point is 250 to 252 °C.

**Q.** What about the IC50 [1] of the same compound?
**A.** The IC50 was over 100 µg/mL.

**Q.** And the IC50 (lung carcinoma (A549))?
**A.** Its IC50 is over 100 µg/mL.

**Q.** And the IC50 [2]?
**A.** The IC50 was 93.1 µg/mL (≈ 225 µM).

**Q.** Which IC50 [1] does the source give for `O=c1[nH]cc(F)c(=O)[nH]1` [5 FU, 5-Fluorouracil, reference compound] here?
**A.** The IC50 was 223 µg/mL (≈ 1710 µM).

**Q.** And the IC50 (lung carcinoma (A549))?
**A.** Its IC50 is 371 µg/mL (≈ 2850 µM).

**Q.** And the IC50 [2]?
**A.** The IC50 was 77.2 µg/mL (≈ 593 µM).
